# Square brackets hold non-standard residues; d marks the D form. Peptide text beside a SMILES is read from it. * marks the point of attachment. d2Nal = N[C@H](Cc1ccc2ccccc2c1)C(=O)O; dPhg = N[C@@H](C(=O)O)c1ccccc1; Boc = CC(C)(C)OC(=O)*
# Columns and labels:
# Assay type in all cases: biochemical
# [1] = biological target: T1, Human recombinant t-PA (Activase®) (Homo sapiens, UniProt P00750); assay: tPA assay, chromogenic substrate Pefachrome tPA; settings: 100 times the IC50 for factor Xa divided by the IC50 of tPA
# T1 construct: purchased Genentech, Inc
# T1 sequence (P00750 36-562): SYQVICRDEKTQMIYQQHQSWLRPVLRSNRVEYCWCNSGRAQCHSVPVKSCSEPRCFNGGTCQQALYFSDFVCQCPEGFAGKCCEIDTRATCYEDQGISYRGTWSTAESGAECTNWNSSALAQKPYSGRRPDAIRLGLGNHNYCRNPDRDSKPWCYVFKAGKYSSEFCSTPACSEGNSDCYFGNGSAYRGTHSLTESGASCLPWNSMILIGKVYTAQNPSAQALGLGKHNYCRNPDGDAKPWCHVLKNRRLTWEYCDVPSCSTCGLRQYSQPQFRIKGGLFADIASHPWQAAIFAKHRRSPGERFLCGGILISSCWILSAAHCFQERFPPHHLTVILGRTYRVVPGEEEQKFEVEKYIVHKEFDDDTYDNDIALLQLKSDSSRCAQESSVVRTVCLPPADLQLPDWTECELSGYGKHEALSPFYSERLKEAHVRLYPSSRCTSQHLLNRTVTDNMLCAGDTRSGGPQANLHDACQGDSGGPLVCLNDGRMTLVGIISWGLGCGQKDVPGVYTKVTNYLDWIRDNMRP
# Protocol: (§1) To assay their activities, the compounds of the present invention are dissolved in buffer to give solutions containing concentrations ranging under assay concentrations from 0 to about 100 μM. The enzyme to be tested is then added to a solution containing a specified concentration of the test compound. Then after an incubation period, synthetic substrate for the enzyme being tested is added. The rate of substrate turnover is determined spectrophotometrically. The IC50 of the test compound is determined for each test compound in assays for factor xa, factor XIa, thrombin and tPA. IC50 is that concentration of test compound giving 50% inhibition of the substrate turnover. Percent selectivity is used to indicate selectivity of a compound in inhibiting Factor Xa in comparison with either Factor XIa, thrombin or tPA. Percent selectivity of a particular compound for either Factor XIa, thrombin or tPA refers to a number obtained by dividing the product of one hundred and the IC50 of the compound for Factor Xa by the IC50 of the compound for either Factor XIa, thrombin or tPA.
# (§2) The specificity of the peptide aldehydes through was determined in vitro by measurement of their IC50 against factor Xa, factor XIa, thrombin and tissue plasminogen activator (tPA). Peptide aldehyde which has been described in the art was run as a comparison. A specific concentration of enzyme and its substrate were challenged with varying concentrations of inhibitor. IC50 is that concentration of inhibitor giving 50% inhibition of catalytic activity, under the assay conditions. Specific assay procedures used are presented below.
# Enzyme activity was determined using as substrate, Pefachrome tPA (O-methylsulfonate-D-hexahydrotyrosine-L-glycyl-L-argini ne-p-nit roanilide acetate salt) which was obtained from Centerchem, Inc. The substrate was made up in deionized water prior to use.
# Human recombinant t-PA (Activase®) was obtained from Genentech, Inc. The enzyme was reconstituted with water, then diluted into TBSA prior to use.
# The assay was run by combining in appropriate wells 50 μL of TBSA, 50 μL of inhibitor in TBSA or TBSA (as negative control) and 50 μL of 4 nM human recombinant tPA or TBSA (as background control). After incubating this mixture for 60 minutes at room temperature, 50 μL of 4 mM Pefachrome tPA was added to each well and the initial rate of the change of optical density at 405 nm (OD405nm) for each well was determined. OD405nm was measured every 10 seconds for 5 minutes.
# [2] = biological target: T2, Human factor Xa (Homo sapiens, UniProt P00742); assay: Factor Xa assay, chromogenic substrate S2765; settings: taken as 100 for each inhibitor by definition
# T2 construct: purchased Enzyme Research Laboratories
# T2 sequence (P00742 235-488 limits assumed): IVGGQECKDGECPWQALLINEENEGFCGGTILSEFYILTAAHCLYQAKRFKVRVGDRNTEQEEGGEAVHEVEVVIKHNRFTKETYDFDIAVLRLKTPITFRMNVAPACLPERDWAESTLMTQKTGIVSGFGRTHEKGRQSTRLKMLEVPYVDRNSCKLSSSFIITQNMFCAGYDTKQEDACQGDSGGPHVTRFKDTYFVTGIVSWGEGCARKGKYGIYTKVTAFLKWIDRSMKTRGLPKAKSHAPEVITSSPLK
# T2 sequence (P00742 41-179 partner limits assumed): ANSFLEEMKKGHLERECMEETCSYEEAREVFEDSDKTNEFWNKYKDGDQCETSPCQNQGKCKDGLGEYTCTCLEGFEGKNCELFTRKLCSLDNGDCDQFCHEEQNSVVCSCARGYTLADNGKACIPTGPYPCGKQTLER
# Protocol: as §1, §2
# Enzyme activity was determined using as substrate, S2765 (N-α-benzyloxycarbonyl-D-argininyl-L-glycyl-L-arginine-p-nitroanilide dihydrochloride) which was obtained from Kabi Diagnostica. The substrate was made up in deionized water prior to use.
# Human factor Xa was obtained from Enzyme Research Laboratories. The enzyme was diluted into TBSA prior to use.
# The assay was run by combining in appropriate wells 50 μL of TBSA, 50 μL of inhibitor in TBSA or TBSA (as negative control) and 50 μL of 2 nM human Factor Xa or TBSA (as background control). After incubating this mixture for 60 minutes at room temperature, 50 μL of 1 mM S-2765 was added to each well and the initial rate of the change of the optical density at 405 nm (OD405nm) for each well was determined. OD405nm was measured every 10 seconds for 5 minutes.
# [3] = biological target: T3, Human factor XIa (Homo sapiens, UniProt P03951); assay: Factor XIa assay, chromogenic substrate S2366; settings: 100 times the IC50 for factor Xa divided by the IC50 of factor XIa
# T3 construct: purchased Enzyme Research Laboratories, Inc
# T3 sequence (P03951 388-625 limits assumed): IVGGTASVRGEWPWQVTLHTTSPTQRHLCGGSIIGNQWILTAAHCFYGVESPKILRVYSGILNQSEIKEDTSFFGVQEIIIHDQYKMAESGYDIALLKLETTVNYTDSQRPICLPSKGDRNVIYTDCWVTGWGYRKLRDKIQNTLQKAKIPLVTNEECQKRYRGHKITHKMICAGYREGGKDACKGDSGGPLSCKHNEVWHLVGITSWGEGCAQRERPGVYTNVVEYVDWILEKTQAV
# T3 sequence (P03951 19-387 partner limits assumed): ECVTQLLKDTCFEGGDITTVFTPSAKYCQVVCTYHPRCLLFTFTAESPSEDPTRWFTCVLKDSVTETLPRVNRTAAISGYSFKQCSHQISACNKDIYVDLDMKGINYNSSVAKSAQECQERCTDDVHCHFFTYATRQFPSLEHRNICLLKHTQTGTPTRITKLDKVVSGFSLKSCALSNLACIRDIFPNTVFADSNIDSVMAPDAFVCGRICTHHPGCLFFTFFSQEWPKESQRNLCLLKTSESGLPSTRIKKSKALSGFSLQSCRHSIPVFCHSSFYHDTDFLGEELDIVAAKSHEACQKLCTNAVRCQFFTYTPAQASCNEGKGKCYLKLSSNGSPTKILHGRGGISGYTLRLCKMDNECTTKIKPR
# Protocol: as §1, §2
# Enzyme activity was determined using as substrate, S2366 (L-pyroglutamyl-L-prolyl-L-arginine-p-nitroanilide hydrochloride) which was obtained from Kabi Diagnostica. The substrate was made up in deionized water prior to use.
# Human factor XIa was obtained from Enzyme Research Laboratories, Inc. The enzyme was diluted into TBSA prior to use.
# The assay was run by combining in appropriate wells 50 μL of TBSA, 50 μL of inhibitor in TBSA or TBSA (as negative control) and 50 μL of 2 nM human Factor XIa or TBSA (as background control). After incubating this mixture for 60 minutes at room temperature, 50 μL of 6 mM S-2366 was added to each well and the initial rate of the change of the optical density at 405 nm (OD405nm) for each well was determined. OD405nm was measured every 10 seconds for 5 minutes.
# [4] = biological target: T4, Human α-thrombin (Homo sapiens, UniProt P00734); assay: Thrombin assay, chromogenic substrate S2238; settings: 100 times the IC50 for factor Xa divided by the IC50 of thrombin
# T4 construct: Human α-thrombin was obtained from Enzyme Research Laboratories, Inc; purchased Enzyme Research Laboratories, Inc
# Protocol: as §1, §2
# Enzyme activity was determined using as substrate, S2238 (D-phenylalanyl-L-pipecolyl-L-arginine-p-nitroanilide dihydrochloride) which was obtained from Kabi Diagnostica. The substrate was made up in deionized water prior to use.
# Human α-thrombin was obtained from Enzyme Research Laboratories, Inc. The enzyme was diluted into TBSA prior to use.
# The assay was run by combining in appropriate wells 50 μL of TBSA, 50 μL of inhibitor in TBSA or TBSA (as negative control) and 50 μL of 4 nM human α-thrombin or TBSA (as background control). After incubating this mixture for 60 minutes at room temperature, 50 μL of 0.24 mM S-2238 was added to each well and the initial rate of the change of optical density at 405 nm (OD405nm) for each well was determined. OD405nm was measured every 10 seconds for 5 minutes.
SMILES,Percent Selectivity tPA [1],Percent Selectivity Xa [2],Percent Selectivity XIa [3],Percent Selectivity Thrombin [4]
"CC(C)(C)OC(=O)N[C@H](Cc1ccccc1)C(=O)N1CC[C@H](c2ccccc2)[C@H]1C(=O)N[C@H](C=O)CCCNC(=N)N (relative stereo) [[10], N-t-butoxycarbonyl-D-phenylalanyl-L-(3-trans-phenyl)prolinyl-L-argininal]",< 2.5,100,< 2.5,< 2.5
"CC(C)(C)OC(=O)N[C@H](Cc1ccc2ccccc2c1)C(=O)N[C@@H](Cc1ccccc1)C(=O)N[C@H](C=O)CCCNC(=N)N [[1], N-t-butoxycarbonyl-D-3-(2-naphthyl)alanyl-L-phenylalanyl-L-araininal] (Boc-[d2Nal]-Phe-Arg-aldehyde)",< 0.9,100,1.4,1.6
"CC(C)(C)OC(=O)N[C@@H](C(=O)N[C@@H](Cc1ccccc1)C(=O)N[C@H](C=O)CCCNC(=N)N)c1ccccc1 [[2], N-t-butoxycarbonyl-D-2-phenylglycyl-L-phenylalanyl-L-araininal] (Boc-[dPhg]-Phe-Arg-aldehyde)",< 2.6,100,4.9,< 2.6
"CC(C)(C)OC(=O)N[C@H](Cc1ccccc1)C(=O)N[C@@H](Cc1ccccc1)C(=O)N[C@H](C=O)CCCNC(=N)N [[4], N-t-butoxycarbonyl-D-phenylalanyl-L-phenylalanyl-L-argininal] (Boc-[dF]-Phe-Arg-aldehyde)",< 0.8,100,0.8,< 0.8
"CC(C)(C)OC(=O)NC(C(=O)N[C@@H](Cc1cccc2ccccc12)C(=O)N[C@H](C=O)CCCNC(=N)N)c1ccc(-c2ccccc2)cc1 (stereo partly drawn) [[7], N-t-butoxycarbonyl-D,L-(α-biphenyl)qlycyl-L-3-(1-naphthyl)alanyl-L-argininal]",< 10,100,< 10,< 10

# Source: US5883077A, “Inhibitors of factor Xa” (Corvas International, Inc., priority 1993, dated 1999)
